Data taken from the supplement of paper PMC10307832.

Experiments:
Assay in all cases: relative viability (nuclei count vs DMSO), 5 days (fraction); higher = more cells survive
A-427 = system: A-427
How it was run: (§1)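 Each reported value is a median over duplicate plates. It expresses relative viability: treated-well nuclei count divided by vehicle-well nuclei count. Lung cancer cell lines in 1536-well plates were dosed by pin tool a day after seeding, alone with one drug or with a fixed anchor-drug dose plus five library-drug doses (not always all listed) in √10 steps, and nuclei were counted after 5 days.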

COR-L23 = system: COR-L23
How it was run: as §1

PC-3 [JPC-3] = system: PC-3 [JPC-3]
How it was run: as §1

LK-2 = system: LK-2
How it was run: as §1

NCI-H2170 = system: NCI-H2170
How it was run: as §1

NCI-H1993 = system: NCI-H1993
How it was run: as §1

LU99A = system: LU99A
How it was run: as §1

SK-MES-1 = system: SK-MES-1
How it was run: as §1

NCI-H727 = system: NCI-H727
How it was run: as §1

NCI-H3122 = system: NCI-H3122
How it was run: as §1

NCI-H596 = system: NCI-H596
How it was run: as §1

NCI-H2228 = system: NCI-H2228
How it was run: as §1

LXF-289 = system: LXF-289
How it was run: as §1

NCI-H1793 = system: NCI-H1793
How it was run: as §1

NCI-H2009 = system: NCI-H2009
How it was run: as §1

SW 900 = system: SW 900
How it was run: as §1

SW 1573 = system: SW 1573
How it was run: as §1

EMC-BAC-2 = system: EMC-BAC-2
How it was run: as §1

HARA = system: HARA
How it was run: as §1

HOP-62 = system: HOP-62
How it was run: as §1

SK-LU-1 = system: SK-LU-1
How it was run: as §1

NCI-H1792 = system: NCI-H1792
How it was run: as §1

NCI-H1944 = system: NCI-H1944
How it was run: as §1

`Clc1ccc(Nc2nnc(Cc3ccncc3)c3ccccc23)cc1` [Vatalanib] + CC(=O)Nc1cccc(-n2c(=O)n(C3CC3)c(=O)c3c(Nc4ccc(I)cc4F)n(C)c(=O)c(C)c32)c1 [Trametinib] (partner 0.02 µM) was tested, and the relative viability (A-427; first compound 0.04 µM) was 0.741, the relative viability (A-427; first compound 0.1265 µM) was 0.743 and the relative viability (A-427; first compound 0.4 µM) was 0.867. For the same compound, the relative viability (A-427; first compound 4 µM) was 0.73, the relative viability (COR-L23; first compound 0.04 µM) was 0.606 and the relative viability (COR-L23; first compound 0.1265 µM) was 0.587. The relative viability (COR-L23; first compound 0.4 µM) was 0.721, the relative viability (COR-L23; first compound 1.265 µM) was 0.578 and the relative viability (COR-L23; first compound 4 µM) was 0.534. It also gave a relative viability (PC-3 [JPC-3]; first compound 0.04 µM) of 0.78, a relative viability (PC-3 [JPC-3]; first compound 0.1265 µM) of 0.675 and a relative viability (PC-3 [JPC-3]; first compound 0.4 µM) of 0.547. It also gave a relative viability (PC-3 [JPC-3]; first compound 1.265 µM) of 0.619, a relative viability (PC-3 [JPC-3]; first compound 4 µM) of 0.646 and a relative viability (LK-2; first compound 0.04 µM) of 0.677. For the same compound, the relative viability (LK-2; first compound 0.1265 µM) was 0.682, the relative viability (LK-2; first compound 0.4 µM) was 0.774 and the relative viability (LK-2; first compound 1.265 µM) was 0.876. It also gave a relative viability (LK-2; first compound 4 µM) of 0.667, a relative viability (NCI-H2170; first compound 0.04 µM) of 0.926 and a relative viability (NCI-H2170; first compound 0.1265 µM) of 0.857. For the same compound, the relative viability (NCI-H2170; first compound 0.4 µM) was 0.856, the relative viability (NCI-H2170; first compound 1.265 µM) was 0.892 and the relative viability (NCI-H2170; first compound 4 µM) was 0.899. The relative viability (NCI-H1993; first compound 0.04 µM) was 0.539, the relative viability (NCI-H1993; first compound 0.1265 µM) was 0.452 and the relative viability (NCI-H1993; first compound 0.4 µM) was 0.54. The relative viability (NCI-H1993; first compound 1.265 µM) was 0.459, the relative viability (NCI-H1993; first compound 4 µM) was 0.49 and the relative viability (LU99A; first compound 0.04 µM) was 0.563. The relative viability (LU99A; first compound 0.1265 µM) was 0.527, the relative viability (LU99A; first compound 0.4 µM) was 0.647 and the relative viability (LU99A; first compound 1.265 µM) was 0.492. For the same compound, the relative viability (LU99A; first compound 4 µM) was 0.521, the relative viability (SK-MES-1; first compound 0.04 µM) was 0.507 and the relative viability (SK-MES-1; first compound 0.1265 µM) was 0.503. It also gave a relative viability (SK-MES-1; first compound 0.4 µM) of 0.573, a relative viability (SK-MES-1; first compound 1.265 µM) of 0.548 and a relative viability (SK-MES-1; first compound 4 µM) of 0.507. The relative viability (NCI-H727; first compound 0.1265 µM) was 0.413, the relative viability (NCI-H727; first compound 0.4 µM) was 0.377 and the relative viability (NCI-H727; first compound 1.265 µM) was 0.37. The relative viability (NCI-H727; first compound 4 µM) was 0.394, the relative viability (NCI-H3122; first compound 0.04 µM) was 0.239 and the relative viability (NCI-H3122; first compound 0.1265 µM) was 0.229. It also gave a relative viability (NCI-H3122; first compound 0.4 µM) of 0.238, a relative viability (NCI-H3122; first compound 1.265 µM) of 0.244 and a relative viability (NCI-H3122; first compound 4 µM) of 0.212. For the same compound, the relative viability (NCI-H596; first compound 0.04 µM) was 0.782, the relative viability (NCI-H596; first compound 0.1265 µM) was 0.88 and the relative viability (NCI-H596; first compound 0.4 µM) was 0.76. It also gave a relative viability (NCI-H596; first compound 1.265 µM) of 0.751, a relative viability (NCI-H596; first compound 4 µM) of 0.75 and a relative viability (NCI-H2228; first compound 0.04 µM) of 0.542. The relative viability (NCI-H2228; first compound 0.1265 µM) was 0.467, the relative viability (NCI-H2228; first compound 0.4 µM) was 0.666 and the relative viability (NCI-H2228; first compound 1.265 µM) was 0.782. It also gave a relative viability (NCI-H2228; first compound 4 µM) of 0.44, a relative viability (LXF-289; first compound 0.04 µM) of 0.688 and a relative viability (LXF-289; first compound 0.1265 µM) of 0.647. The relative viability (LXF-289; first compound 0.4 µM) was 0.686, the relative viability (LXF-289; first compound 1.265 µM) was 0.668 and the relative viability (LXF-289; first compound 4 µM) was 0.626. The relative viability (NCI-H1793; first compound 0.04 µM) was 0.372, the relative viability (NCI-H1793; first compound 0.1265 µM) was 0.494 and the relative viability (NCI-H1793; first compound 0.4 µM) was 0.424. The relative viability (NCI-H1793; first compound 1.265 µM) was 0.388, the relative viability (NCI-H1793; first compound 4 µM) was 0.425 and the relative viability (NCI-H2009; first compound 0.04 µM) was 0.32. For the same compound, the relative viability (NCI-H2009; first compound 0.1265 µM) was 0.251, the relative viability (NCI-H2009; first compound 0.4 µM) was 0.325 and the relative viability (NCI-H2009; first compound 1.265 µM) was 0.307. The relative viability (NCI-H2009; first compound 4 µM) was 0.263, the relative viability (SW 900; first compound 0.04 µM) was 0.768 and the relative viability (SW 900; first compound 0.1265 µM) was 0.696. It also gave a relative viability (SW 900; first compound 0.4 µM) of 0.558, a relative viability (SW 900; first compound 1.265 µM) of 0.877 and a relative viability (SW 900; first compound 4 µM) of 0.714. It also gave a relative viability (SW 1573; first compound 0.1265 µM) of 0.569, a relative viability (SW 1573; first compound 0.4 µM) of 0.607 and a relative viability (SW 1573; first compound 1.265 µM) of 0.58. It also gave a relative viability (SW 1573; first compound 4 µM) of 0.564, a relative viability (EMC-BAC-2; first compound 0.04 µM) of 0.902 and a relative viability (EMC-BAC-2; first compound 0.1265 µM) of 0.879. It also gave a relative viability (EMC-BAC-2; first compound 0.4 µM) of 0.908, a relative viability (EMC-BAC-2; first compound 4 µM) of 0.944 and a relative viability (HARA; first compound 0.04 µM) of 0.687. The relative viability (HARA; first compound 0.1265 µM) was 0.728, the relative viability (HARA; first compound 0.4 µM) was 0.606 and the relative viability (HARA; first compound 1.265 µM) was 0.677. The relative viability (HARA; first compound 4 µM) was 0.909, the relative viability (HOP-62; first compound 0.04 µM) was 0.388 and the relative viability (HOP-62; first compound 0.1265 µM) was 0.382. It also gave a relative viability (HOP-62; first compound 0.4 µM) of 0.42, a relative viability (HOP-62; first compound 1.265 µM) of 0.367 and a relative viability (HOP-62; first compound 4 µM) of 0.355. The relative viability (SK-LU-1; first compound 0.04 µM) was 0.59, the relative viability (SK-LU-1; first compound 0.1265 µM) was 0.54 and the relative viability (SK-LU-1; first compound 0.4 µM) was 0.666. For the same compound, the relative viability (SK-LU-1; first compound 1.265 µM) was 0.533, the relative viability (SK-LU-1; first compound 4 µM) was 0.599 and the relative viability (NCI-H1792; first compound 0.04 µM) was 0.528. The relative viability (NCI-H1792; first compound 0.1265 µM) was 0.395, the relative viability (NCI-H1792; first compound 0.4 µM) was 0.394 and the relative viability (NCI-H1792; first compound 1.265 µM) was 0.399. The relative viability (NCI-H1792; first compound 4 µM) was 0.456, the relative viability (NCI-H1944; first compound 0.04 µM) was 0.42 and the relative viability (NCI-H1944; first compound 0.1265 µM) was 0.373. It also gave a relative viability (NCI-H1944; first compound 0.4 µM) of 0.438, a relative viability (NCI-H1944; first compound 1.265 µM) of 0.425 and a relative viability (NCI-H1944; first compound 4 µM) of 0.386.
